According to US20160067247A1, “NOVEL USE” (GlaxoSmithKline Intellectual Property (No.2) Limited, priority 2012, published 2016):
Like-named read-outs stand apart in the source and are kept apart here.

Columns and labels:
AKT phosphorylation = AKT phosphorylation in cells (macrophages) isolated from IPF BALF, MSD assay (Example 1); type: cell-based; conditions: Homo sapiens, Macrophage, 25 min; macrophages isolated from n=3 IPF BALFs; 25 minutes incubation; geometric mean (95% CI 0.28-1.08 nM); read-out: IC50 for inhibition of AKT phosphorylation
Description: Phosphorylation of AKT is widely accepted as an indication of PI3-kinase activity, and is utilised here to obtain an IC50 for the effect of 2,4-difluoro-N-{2-(methyloxy)-5-[4-(4-pyridazinyl)-6-quinolinyl]-3-pyridinyl}benzenesulfonamide on primary human lung fibroblasts isolated from the IPF patients, in addition to macrophages isolated from IPF bronchoalveolar lavage (BALF).
In similar experiments, inhibition of AKT phosphorylation by 2,4-difluoro-N-{2-(methyloxy)-5-[4-(4-pyridazinyl)-6-quinolinyl]-3 pyridinyl}benzenesulfonamide is assessed in cells isolated from IPF BALF. Briefly, BAL cells are resuspended in 0.1% BSA RPMI media to a cell provide a cell count of 5.7×10^4-8.3×10^4 cells per well. BAL cells are added to a 96 well plate and incubated with a range of 2,4-difluoro-N-{2-(methyloxy)-5-[4-(4-pyridazinyl)-6-quinolinyl]-3 pyridinyl}benzenesulfonamide (0.1% DMSO and 0.1% BSA final concentration in the assay). After 25 minutes incubation at 37° C., 5% CO2 the plate is spun for 5 min at 1600 rpm. The supernatants are decanted and 40 μl of phosphosafe lysis buffer containing protease inhibitors is added to each well. The plate is then snap frozen in liquid nitrogen and stored at −80° C. prior to further analysis. Following thawing on ice, cell lysates are transferred onto phospho Akt, total Akt Meso Scale Discovery (MSD) capture plates and processed as described above.

[1] = test system: AKT phosphorylation (pAKT) at position Ser473; experiment: FBS stimulated AKT (S473) phosphorylation in primary human lung fibroblasts, MSD assay (Example 2); type: cell-based; conditions: Fibroblast, 0.5 h, 20% FBS 30 minute, read-out: mean pIC50, AKT (S473) phosphorylation (converted)
Experimental: Primary human fibroblasts were isolated by explant culture from non-IPF lung tissue, obtained post mortem following sudden trauma, and IPF lung tissue obtained from the lungs of IPF patients which were removed for transplantation or biopsy. Explants were cultured in DMEM containing high glucose and sodium pyruvate (PAA laboratories, catalogue #E15-011) with penicillin/streptomycin (Sigma #P4333), amphotericin B (Sigma #A2942), L-glutamine (Gibco #25030) and 20% FBS (foetal bovine serum, Lonza, catalogue #14-801F, Lot #1SB003) at 37° C., 100% humidity, 10% CO2. Cells were designated non-IPF (UCL marked 0110 and 0610) and IPF (UCL marked 0207, 0208, 0308, 0507 and 0508) based on medical diagnosis.
Human lung primary fibroblast cell lines were cultured in DMEM containing high glucose and sodium pyruvate supplemented with L-glutamine, penicillin/streptomycin and 10% FBS (complete DMEM) at 37° C., 100% humidity, 10% CO2. Cells were split into T175 flasks (NUNC #159910) 2 to 3 days prior to assay set-up at a density which yields approximately 70-80% confluence at time of harvest for assay. Cells were harvested using 0.25% trypsin-EDTA (Gibco #25300), washed and re-suspended in complete DMEM. Cell counts were performed on the cell suspension using a Handheld Automated Cell Counter (Millipore #PHCC00000) with 60 μm sensors (Millipore #PHCC60050). […]

`COc1ncc(-c2ccc3nccc(-c4ccnnc4)c3c2)cc1NS(=O)(=O)c1ccc(F)cc1F` [2,4-difluoro-N-{2-(methyloxy)-5-[4-(4-pyridazinyl)-6-quinolinyl]-3-pyridinyl}benzenesulfonamide] showed an IC50 (AKT phosphorylation) of 0.54 nM, an IC50 ([1]; IPF fibroblasts, n=5 cell lines (+/-0.1 SEM)) of 1.58 nM and an IC50 ([1]; primary human non-IPF fibroblasts, n=2 lines (range 8.8-9.4)) of 0.794 nM.
